Read-outs that look alike come from different tables or passages of the source.
Experiments:
[1] = system: apomorphine induced climbing behavior; test: Antipsychotic screen: apomorphine induced climbing behavior; type: in vivo; conditions: mouse, apomorphine 1 mg/kg, observed 20 minutes after; for ED50: 20 min, read-out: Approx. 50% ED, apomorphine climbing
Protocol: The effect of each of the benzofurancarboxamides shown in Table VIII below on apomorphine induced climbing behavior was tested under the conditions described by Costetin et al. "Rapid and Dissociated Changes in Sensitivities of Different Dopamine Receptors in Mouse Brain," Nature, 257, 405 (1975). Each mouse was administered from 0.1 to 50 mg/kg of test compound and antagonism was observed 20 minutes after injection of 1 mg/kg apomorphine induced climbing behavior.

[2] = system: apomorphine emesis; test: Antiemetic screen: Apomorphine Emesis (Dog); type: in vivo, Beagle dogs; conditions: s.c., apomorphine HCl 0.1 mg/kg sc one hour after test compound, 2 dogs; for ED100: Canis lupus familiaris, sc, 1 h, read-out: 100% Effect Dosage level (dosage at which both animals were protected from apomorphine emesis)
Protocol: Each of the test compounds shown in Table VIII was administered subcutaneously to two Beagle dogs at dosage levels of 0.05, 0.1, 1.0 and 10.0 mg/kg. One hour following administration of the test compound, each animal received 0.1 mg/kg, sc, of apomorphine HCl. Apomorphine consistently evokes an immediate emetic response through direct dopaminergic interaction at the medullary chemoreceptor trigger zone (CTZ). Antiemetic compounds which act at the CTZ and/or the midbrain vomiting center will block this effect. If both animals receiving a particular treatment are protected, (i.e., no emetic response within one hour after apomorphine), the test compound is considered active.

[3] = system: dopamine receptors; conditions: cited from earlier work
[4] = oral (marked in cell; head prints s.c.)
[5] = ip, i.p. (marked in cell; head prints s.c.)

CCN1CCCC1CNC(=O)c1ccc(Cl)c2c1OC(C)C2.O=C(O)/C=C/C(=O)O (centres unmarked) [drawing 99 R = H R' = Cl, 4-chloro-N-(1-ethyl-2-pyrrolidinylmethyl)-2-methyl-2,3-dihydrobenzo[b]furan-7-carboxamide fumarate]
ED50 [1, 4]: ~40 mg/kg | ED50 [1, 5]: ~25 mg/kg

CCN1CCCC1CNC(=O)c1cccc2ccoc12 (centres unmarked) [drawing 97 R = H]
ED50 [1, 5]: ~12 mg/kg | ED100 [2]: 10 mg/kg

CCN1CCCC1CNC(=O)c1cc(Br)cc2ccoc12 (centres unmarked)
ED50 [1, 5]: ~0.5 mg/kg | ED100 [2]: 0.1 mg/kg

CCN1CCCC1CNC(=O)c1cc([N+](=O)[O-])cc2c1OCC2 (centres unmarked) [drawing 98 R = NO2, N-(1-ethyl-2-pyrrolidinylmethyl)-5-nitro-2,3-dihydrobenzo[b]furan-7-carboxamide]
ED50 [1, 4]: ~15 mg/kg | ED50 [1, 5]: ~20 mg/kg | ED100 [2]: 1 mg/kg

CCN1CCCC1CNC(=O)c1cccc2c1OC(C)(C)C2 (centres unmarked) [drawing 109 R1 = R2 = CH3]
ED50 [1, 5]: ~100 mg/kg | ED100 [2]: 10 mg/kg

CCN1CCCC1CNC(=O)c1cc(OC)cc2c1OC(C)C2 (centres unmarked) [drawing 99 R = OCH3 R' = H]
ED50 [1, 4]: ~1 mg/kg | ED50 [1, 5]: ~25 mg/kg | ED100 [2]: 0.1 mg/kg

CCN1CCCC1CNC(=O)c1cc(Cl)cc2c1OCC2 (centres unmarked) [drawing 98 R = Cl]
ED50 [1, 4]: ~15 mg/kg | ED50 [1, 5]: ~5 mg/kg | ED100 [2]: 1 mg/kg

CCN1CCCC1CNC(=O)c1cc(NC(C)=O)cc2c1OCC2.O=C(O)/C=C/C(=O)O (centres unmarked) [drawing 98 R = NHCOCH3, 5-acetamido-N-(1-ethyl-2-pyrrolidinylmethyl)-2,3-dihydrobenzo[b]furan-7-carboxamide fumarate]
ED50 [1, 5]: ~50 mg/kg

O=C(NC1CCN(Cc2ccccc2)C1)c1cc(Br)cc2ccoc12 (centres unmarked)
ED50 [1, 5]: ~30 mg/kg

CCN1CCCC1CNC(=O)c1cc(Br)cc2c1OC(C)C2 (centres unmarked) [drawing 99 R = Br R' = H]
ED50 [1, 5]: ~2 mg/kg | ED100 [2]: 0.005 mg/kg

CCN1CCCC1CNC(=O)c1cc(Cl)cc2ccoc12.O=C(O)/C=C/C(=O)O (centres unmarked) [drawing 105 R = Cl R' = H, 5-chloro-N-(1-ethyl-2-pyrrolidinylmethyl)benzo[b]furan-7-carboxamide fumarate]
ED50 [1, 4]: ~5 mg/kg | ED100 [2]: 0.1 mg/kg

CCN1CCCC1CNC(=O)c1cccc2c1OC(C)C2 (centres unmarked) [drawing 109 R1 = H,R2 = CH3]
Approx. 50% ED, apomorphine climbing ([1]; i.p. (marked in cell; head prints s.c.)): ~20 mg/kg | 100% Effect Dosage level (dosage at which both animals were protected from apomorphine emesis) [2]: 0.85 mg/kg

CCN1CCCC1CNC(=O)c1cc(Cl)c(Cl)c2c1OC(C)C2 (centres unmarked) [drawing 99 R = Cl R' = Cl]
ED50 [1, 4]: ~10 mg/kg

CCN(CC)CCNC(=O)c1cc(Cl)c(N)cc1OC [metoclopramide, 4-amino-5-chloro-N-[(2-diethylamino)ethyl]-2-methoxybenzamide]
release of prolactin (side effect) [3]: increase in the release of prolactin

CCN1CCCC1CNC(=O)c1cc(NS(C)(=O)=O)cc2c1OCC2 (centres unmarked) [drawing 98 R = NHSO2 CH3, N-(1-ethyl-2-pyrrolidinylmethyl)-5-methanesulfonamido-2,3-dihydrobenzo[b]furan-7-carboxamide]
ED50 [1, 4]: ~50 mg/kg | ED100 [2]: 1 mg/kg

CCN1CCCC1CNC(=O)c1cc(S(N)(=O)=O)ccc1OC (centres unmarked) [sulpiride, 2-methoxy-N-(1-ethyl-2-pyrrolidinylmethyl)-5-sulfamoyl benzamide]
release of prolactin (side effect) [3]: increase in the release of prolactin

CCN1CCCC1CNC(=O)c1cccc2c1OC(C)C2 (centres unmarked) [drawing 99 R = H R' = H]
ED50 [1, 5]: ~20 mg/kg | 100% Effect Dosage level (dosage at which both animals were protected from apomorphine emesis) [2]: 0.05 mg/kg

CCN1CCCC1CNC(=O)c1cccc2c1OCC2 (centres unmarked) [drawing 98 R = H]
ED50 [1, 5]: ~20 mg/kg | ED100 [2]: 1 mg/kg

CCN1CCCC1CNC(=O)c1ccc(OC)c2c1OC(C)C2 (centres unmarked) [drawing 99 R = H R' = OCH3]
ED50 [1, 4]: ~25 mg/kg

CCN1CCCC1CNC(=O)c1cc(N)cc2c1OCC2.O=C(O)/C=C/C(=O)O (centres unmarked) [drawing 98 R = NH2, 5-amino-N-(1-ethyl-2-pyrrolidinylmethyl)-2,3-dihydrobenzo[b]furan-7-carboxamide fumarate]
ED50 [1, 4]: ~20 mg/kg | ED50 [1, 5]: ~25 mg/kg

CCN1CCCC1CNC(=O)c1cc(F)cc2ccoc12 (centres unmarked) [drawing 105 R = F R' = H]
ED100 [2]: 1 mg/kg

CCN1CCCC1CNC(=O)c1cc(Br)cc2c1OCC2 (centres unmarked) [drawing 98 R = Br]
ED50 [1, 4]: ~15 mg/kg | ED100 [2]: 1 mg/kg

CCN1CCCC1CNC(=O)c1cc(C)cc2c1OCC2.Cl (centres unmarked) [drawing 98 R = CH3, N-(1-ethyl-2-pyrrolidinylmethyl)-5-methyl-2,3-dihydrobenzo[b]furan-7-carboxamide hydrochloride]
ED50 [1, 5]: ~3 mg/kg | ED100 [2]: 0.1 mg/kg

CCN1CCCC1CNC(=O)c1cccc2cc(C)oc12 (centres unmarked) [drawing 97 R = CH3]
ED50 [1, 5]: ~3 mg/kg | ED100 [2]: 10 mg/kg

— US4888353A, “Carboxamides useful as antiemetic or antipsychotic agents” (Erbamont, Inc., priority 1986, dated 1989)
